Measurements published in patent US4125501A, “Phosphites of sugar alcohols and polymers stabilized therewith” (Hoechst Aktiengesellschaft, priority 1976, dated 1978).

Assays:
[1] = dynamic heat stability (rolling stability) in polyvinyl chloride; details: 180° C, 20 rpm, 0.5 part phosphite per 100 parts PVC
Procedure: Each time 100 parts of a mass polyvinyl chloride having a K value of 60 were intimately mixed with
0.2 part of 2-phenyl-indole,
3.0 parts of epoxidized soybean oil
0.3 part of stearyl stearate
0.5 part of glycerol monostearate and
0.5 part each of respective phosphite of the invention.
To measure the dynamic heat stability (rolling stability) the mixtures were rolled on a two roll mill at 180° C. and with 20 revolutions per minute. At intervals of 10 minutes samples were taken from the rough sheet and the color of the samples was compared with the colors of a proper color chart. Rolling was continued until the rough sheet had turned black.
In the color chart used the individual notes have the following meaning: […]

[2] = stability to hydrolysis (boiling in deionized water, titration of liberated phosphorous acid); assay type: physicochemical; details: for degree of hydrolysis after 60 minutes: 1 h
Procedure: The stability to hydrolysis was tested according to the process disclosed in DT-OS 2,144,181, pages 7/8. 5.0 g each of the respective phosphite were boiled for 20 and 60 minutes in 100 ml of deionized water. The mixture was then allowed to cool, it was filtered to remove residues, if any, and in the filtrate the liberated phosphorous acid was titrated with 0.1N KOH against bromophenol blue.
In the following table is indicated the degree of hydrolysis determined under the specified conditions as quotient of the actual consumption of KOH and the theoretically possible consumption with a complete hydrolysis.

[3] = acute toxicity in male albino mice, per os; assay type: in vivo
Procedure: To test the acute toxicities of the compounds of the invention male albino mice were fed as prescribed in the book "Grundlagen der experimentellen Arzneimittelforschung" by Leopold Ther, addition 1965.
The phosphite to be tested was administered per os, suspended in aqueous methyl cellulose (Tylose^R) solution, to groups of 5 test animals each, the doses being 1,000, 2,000, and 5,000 mg/kg of body weight.

Molecule	degree of hydrolysis after 20 minutes [2]	degree of hydrolysis after 60 minutes [2]	further results
CCCCCCCCCCCCCCCCCCOP1OCC2(CO1)COP(OCCCCCCCCCCCCCCCCCC)OC2 (stereo not drawn) [distearyl-pentaerythrityl-diphosphite]			dynamic (rolling) stability, discoloration of rough sheet after a rolling time of 40' ([1]; 40'): 4; dynamic (rolling) stability, discoloration of rough sheet after a rolling time of 50' ([1]; 50'): 5
Di-(β-hydroxy-triacontyl)-sorbityl-diphosphite [Example 2]	22.5 % of theory		toxicity assessment ([3]; acute): practically innocuous; deaths at the highest dosage ([3]; per os, highest dose 5,000 mg/kg of body weight): no animal died
Di-(β-hydroxy-triacontyl)-mono-thiododecyl-sorbityl-triphosphite [Example 4]	1.5 % of theory	3.6 % of theory	

Second part, led by results:

degree of hydrolysis after 20 minutes [2]	degree of hydrolysis after 60 minutes [2]	Molecule	further results
1.8 % of theory	2.4 % of theory	Tri-(β-hydroxy-triacontyl)-sorbityl-triphosphite [Example 1]	
1.0 % of theory	2.0 % of theory	Di-(β-hydroxy-eicosyl)-mono-thiododecyl-mannityl-triphosphite [Example 5]	
21.0 % of theory		Di-(β-hydroxy-triacontyl)-mannityl-diphosphite [Example 3]	
